Results reported in publication PMC3580115 (Journal of natural products, 2012).
≈ marks a conversion by molar mass, not a printed value. Like-named read-outs stand apart in the source and are kept apart here.

Assays:
[1] = MTT cytotoxicity assay, panel statement over the five cancer cell lines; type: cell-based, human; details: human
[2] = test system: five human cancer cell lines; test: as above; type: cell-based; details: for selectivity index compared to the Beas-2B cell line: cancer cell lines versus Beas-2B
[3] = from bulbs of Z. candida; cited from earlier work
[4] = comparison in words, Table S1 not available

SMILES | IC50 at 48 h [1] [µM] | other results
CCOC(=O)CCn1c(=O)c2cc3c(cc2c2ccccc21)OCO3 [Compound 7, N-ethoxycarbonylethylcrinasiadine] | > 10 | –
CO[C@@H]1C=C[C@@]23c4cc5c(cc4CN(C[C@@H]2O)[C@H]3C1)OCO5 [Compound 2, haemanthamin] | 0.81 to 13 | selectivity index compared to the Beas-2B cell line [2]: ≤ 10; cytotoxicity compared with positive control cis-platin [2, 4]: more potent cytotoxicity than one of the positive controls (cis-platin)
CO[C@H]1C=C[C@@]23c4cc5c(cc4CN(C)[C@@H]2C(=O)N(C)[C@H]3C1)OCO5 [Compound 5, N-methyl-5,6-dihydroplicane] | > 10 | –
c1ccc2c(c1)ncc1cc3c(cc12)OCO3 [Compound 12, trisphaeridine] | > 10 | –
C/C=C/C=C/C(=O)N1C[C@H](C)NC[C@H]1C [Compound 15, nigragillin] | > 10 | –
O=c1c2cc3c(cc2c2ccccc2n1CCc1ccccc1)OCO3 [Compound 9, N-phenethylcrinasiadine] | 0.81 to 13 | cytotoxicity compared with positive control cis-platin [2]: more potent cytotoxicity than one of the positive controls (cis-platin); selectivity index compared to the Beas-2B cell line [2]: ≤ 10
CCOC(=O)CCCn1c(=O)c2cc3c(cc2c2ccccc21)OCO3 [Compound 8, N-ethoxycarbonylpropylcrinasiadine] | > 10 | –
O=C1N[C@H]2[C@H](O)[C@H](O)[C@@H](O)C[C@@H]2c2cc3c(c(O)c21)OCO3 (relative stereo) [trans-dihydronarciclasine] | – | IC50 as cytostatic agent [3]: 3.2 ng/mL (≈ 0.0103 µM)
CO[C@@H]1C=C[C@@]23c4cc5c(cc4CO[C@]2(O)CN(C)[C@H]3C1)OCO5 [Compound 4, (+)-tazettine] | > 10 | –
CO[C@@H]1C=C[C@@]23c4cc5c(cc4C(O)[N+](C)(C[C@@H]2O)[C@H]3C1)OCO5.[Cl-] (stereo partly drawn) [Compound 1, N-methylhaemanthidine chloride] | 0.81 to 13 | selectivity index compared to the Beas-2B cell line [2]: ≤ 10; cytotoxicity compared with positive control cis-platin [2, 4]: more potent cytotoxicity than one of the positive controls (cis-platin)
CN1Cc2cc3c(cc2-c2ccccc21)OCO3 [Compound 13, 5,6-dihydrobicolorine] | > 10 | –
O[C@H]1[C@H]2c3cc4c(cc3CN3CCC(=C[C@@H]1O)[C@H]23)OCO4 [Compound 14, lycorine] | 0.81 to 13 | selectivity index compared to the Beas-2B cell line [2]: ≤ 10; cytotoxicity compared with positive control cis-platin [2, 4]: more potent cytotoxicity than one of the positive controls (cis-platin)
Cn1c(=O)c2cc3c(cc2c2ccccc21)OCO3 [Compound 11, N-methylcrinasiadine] | > 10 | –
CO[C@@H]1C=C[C@@]23c4cc5c(cc4C(=O)O[C@H]2CN(C)[C@H]3C1)OCO5 [Compound 3, 3-epimacronine] | > 10 | –
CC(C)CCn1c(=O)c2cc3c(cc2c2ccccc21)OCO3 [Compound 10, N-isopentylcrinasiadine] | > 10 | –
COc1cc2c(c(OC)c1OC)[C@@H](OC)O[C@@H]1CC=C3CCN(C)[C@H]3[C@H]21 [Compound 6, O-methylnerinine] | > 10 | –
